From US20200131669A1, “CYCLIC PEPTIDE COMPOUND HAVING HIGH MEMBRANE PERMEABILITY, AND LIBRARY CONTAINING SAME” (Chugai Seiyaku Kabushiki Kaisha, priority 2017, published 2020)
Starred links: 1 amine or outer side, 2 acyl side, 3 side chain; linkers in the order of their positions; H or OH if unused. Positions of bridges follow the written chain, without caps; N, C: chain ends. Non-standard residues stand in square brackets, D forms with d. Residues, ends and D or L forms follow the SMILES beside them. *: point of attachment. Phe(4-CF3) = N[C@@H](Cc1ccc(C(F)(F)F)cc1)C(=O)O; Tyr(3-F) = N[C@@H](Cc1ccc(O)c(F)c1)C(=O)O; NMeF = CN[C@@H](Cc1ccccc1)C(=O)O; NMeGABA = CN(CCCC(=O)[*:2])[*:1]; NMeI = CC[C@H](C)[C@H](NC)C(=O)O; NMeL = CN[C@@H](CC(C)C)C(=O)O; NMeV = CN[C@H](C(=O)O)C(C)C; NMeA = CN[C@@H](C)C(=O)O; Piperidide = C1CCN(*)CC1; dNMeA = CN[C@H](C)C(=O)O; Sar = CNCC(=O)O; tBu = CC(C)(C)*

Assay: Caco-2 membrane permeability, improved method as used in the following Examples (96-well, 20 to 24 h preincubation)
Type: in vitro ADME
Settings: Caco-2, Caco-2 (cm/sec)
How it was run: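 Papp (cm/sec) was derived from LC/MS of basal samples collected 180 min after apical dosing in FaSSIF/HBSS pH 6.0 with 1% DMSO, against a basal HBSS pH 7.4 receiver containing 4% BSA. Three-week Caco-2 cultures were first preincubated with compound in DMEM+FaSSIF at 37 °C for 20–24 h.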

| Compound | Papp A→B [×10⁻⁶ cm/s] |
| --- | --- |
| CC(C)C[C@H]1C(=O)N[C@@H](COC(C)(C)C)C(=O)N(C)[C@@H](C(C)C)C(=O)N(C)[C@@H](C)C(=O)N[C@H](C(=O)N2CCCCC2)CC(=O)N[C@H](C)C(=O)N(C)[C@@H](Cc2ccccc2)C(=O)N[C@@H](Cc2ccc(C(F)(F)F)cc2)C(=O)N(C)[C@@H](CC(C)C)C(=O)N[C@@H]([C@@H](C)O)C(=O)N(C)CC(=O)N1C [pd130] ([dA][NMeF][Phe(4-CF3)][NMeL]T[Sar][NMeL]S(tBu)[NMeV][NMeA]D-Piperidide; lactam N-11) | 1.1 |
| CC[C@H](C)[C@H]1C(=O)N[C@@H]([C@@H](C)O)C(=O)N(C)CC(=O)N(C)[C@@H](C)C(=O)N[C@H](C(=O)N2CCCCC2)CC(=O)N(C)[C@@H](C)C(=O)N[C@@H](Cc2ccc(C(F)(F)F)cc2)C(=O)N(C)[C@@H](CC(C)C)C(=O)N(C)[C@@H](Cc2ccccc2)C(=O)N[C@@H](C)C(=O)N(C)[C@@H](CC(C)C)C(=O)N1C [pd131] ([NMeA][Phe(4-CF3)][NMeL][NMeF]A[NMeL][NMeI]T[Sar][NMeA]D-Piperidide; lactam N-11) | 1.1 |

Same assay, conditions: human, Caco-2, Caco-2 (cm/sec)

| Compound | Papp A→B at 180 min [×10⁻⁶ cm/s] |
| --- | --- |
| CC[C@H](C)[C@@H]1NC(=O)[C@H](CC(C)C)N(C)C(=O)[C@@H](C)NC(=O)C[C@@H](C(=O)N2CCCCC2)NC(=O)[C@H](C(C)C)N(C)C(=O)[C@H](Cc2ccccc2)N(C)C(=O)[C@H](COC(C)(C)C)NC(=O)[C@H](CC(C)C)N(C)C(=O)CN(C)C(=O)[C@H](Cc2ccc(O)cc2)NC(=O)[C@H](C)N(C)C1=O [pd117] ([dA][NMeL]I[NMeA]Y[Sar][NMeL]S(tBu)[NMeF][NMeV]D-Piperidide; lactam N-11) | 0.56 |
| CC(C)C[C@H]1NC(=O)C[C@@H](C(=O)N2CCCCC2)NC(=O)[C@H](C)N(C)C(=O)[C@H](CC(C)C)N(C)C(=O)[C@H](COC(C)(C)C)NC(=O)[C@H](CC(C)C)N(C)C(=O)CN(C)C(=O)[C@H]([C@@H](C)O)NC(=O)[C@H](CC(C)C)N(C)C(=O)[C@H](Cc2ccc(O)c(F)c2)NC(=O)[C@H](Cc2ccccc2)N(C)C1=O [pd118] ([dL][NMeF][Tyr(3-F)][NMeL]T[Sar][NMeL]S(tBu)[NMeL][NMeA]D-Piperidide; lactam N-11) | 0.2 |
| CC[C@H](C)[C@@H]1NC(=O)[C@H](CC(C)C)N(C)C(=O)CCCN(C)C(=O)C[C@@H](C(=O)N2CCCCC2)NC(=O)[C@H](CC(C)C)N(C)C(=O)[C@H](C)N(C)C(=O)[C@H]([C@@H](C)O)NC(=O)[C@H](CC(C)C)N(C)C(=O)[C@H](Cc2ccc(O)c(F)c2)NC(=O)[C@H](CC(C)C)N(C)C(=O)[C@H](Cc2ccccc2)N(C)C1=O [pd119] ([NMeGABA][NMeL]I[NMeF][NMeL][Tyr(3-F)][NMeL]T[NMeA][NMeL]D-Piperidide; lactam N-11) | 0.16 |
| CC(C)C[C@@H]1NC(=O)[C@H](C)N(C)C(=O)C[C@@H](C(=O)N2CCCCC2)NC(=O)[C@H](CC(C)C)N(C)C(=O)CN(C)C(=O)[C@H](Cc2ccc(O)c(F)c2)NC(=O)[C@H](CC(C)C)N(C)C(=O)[C@H](C)N(C)C(=O)[C@H](C)NC(=O)[C@H](Cc2ccccc2)N(C)C(=O)[C@H](CC(C)C)N(C)C1=O [pd120] ([NMeA]L[NMeL][NMeF]A[NMeA][NMeL][Tyr(3-F)][Sar][NMeL]D-Piperidide; lactam N-11) | 0.23 |
| CC(C)C[C@H]1C(=O)N[C@@H](COC(C)(C)C)C(=O)N(C)[C@@H](Cc2ccccc2)C(=O)N(C)[C@@H](C(C)C)C(=O)N[C@H](C(=O)N2CCCCC2)CC(=O)N[C@H](C(C)C)C(=O)N(C)[C@@H](C)C(=O)N[C@@H](C(C)C)C(=O)N(C)[C@@H](CC(C)C)C(=O)N[C@@H](Cc2ccc(O)cc2)C(=O)N(C)CC(=O)N1C [pd121] ([dV][NMeA]V[NMeL]Y[Sar][NMeL]S(tBu)[NMeF][NMeV]D-Piperidide; lactam N-11) | 1 |
| CC(C)C[C@H]1C(=O)N[C@H](C(=O)N2CCCCC2)CC(=O)N(C)[C@@H](C)C(=O)N[C@@H](Cc2ccc(O)c(F)c2)C(=O)N(C)[C@@H](CC(C)C)C(=O)N(C)[C@@H](CC(C)C)C(=O)N[C@@H](C(C)C)C(=O)N(C)[C@@H](Cc2ccccc2)C(=O)N(C)[C@@H](CC(C)C)C(=O)N[C@@H]([C@@H](C)O)C(=O)N(C)CC(=O)N1C [pd122] ([NMeA][Tyr(3-F)][NMeL][NMeL]V[NMeF][NMeL]T[Sar][NMeL]D-Piperidide; lactam N-11) | 0.46 |
| CC[C@H](C)[C@@H]1NC(=O)[C@H](CC(C)C)N(C)C(=O)[C@@H](C)NC(=O)C[C@@H](C(=O)N2CCCCC2)NC(=O)[C@H](C)N(C)C(=O)[C@H](Cc2ccccc2)N(C)C(=O)[C@H](COC(C)(C)C)NC(=O)[C@H](CC(C)C)N(C)C(=O)CN(C)C(=O)[C@H](Cc2ccc(O)c(F)c2)NC(=O)[C@H](CC(C)C)N(C)C1=O [pd124] ([dA][NMeL]I[NMeL][Tyr(3-F)][Sar][NMeL]S(tBu)[NMeF][NMeA]D-Piperidide; lactam N-11) | 0.32 |
| CC[C@H](C)[C@@H]1NC(=O)[C@H](C(C)C)N(C)C(=O)CCCN(C)C(=O)C[C@@H](C(=O)N2CCCCC2)NC(=O)[C@H](CC(C)C)N(C)C(=O)[C@H](C)N(C)C(=O)[C@H](Cc2ccc(O)cc2)NC(=O)[C@H](CC(C)C)N(C)C(=O)[C@H](COC(C)(C)C)NC(=O)[C@H](Cc2ccccc2)N(C)C(=O)[C@H](CC(C)C)N(C)C1=O [pd125] ([NMeGABA][NMeV]I[NMeL][NMeF]S(tBu)[NMeL]Y[NMeA][NMeL]D-Piperidide; lactam N-11) | 0.45 |
| CC[C@H](C)[C@H]1C(=O)N[C@@H](Cc2ccc(O)cc2)C(=O)N(C)CC(=O)N(C)[C@@H](CC(C)C)C(=O)N[C@H](C(=O)N2CCCCC2)CC(=O)N(C)[C@@H](C)C(=O)N[C@@H](C(C)C)C(=O)N(C)[C@@H](CC(C)C)C(=O)N(C)[C@@H](CC(C)C)C(=O)N[C@@H](C)C(=O)N(C)[C@@H](Cc2ccccc2)C(=O)N1C [pd126] ([NMeA]V[NMeL][NMeL]A[NMeF][NMeI]Y[Sar][NMeL]D-Piperidide; lactam N-11) | 0.42 |
| CC(C)C[C@@H]1NC(=O)[C@H](Cc2ccccc2)N(C)C(=O)[C@@H](C(C)C)NC(=O)C[C@@H](C(=O)N2CCCCC2)NC(=O)[C@H](C)N(C)C(=O)[C@H](CC(C)C)N(C)C(=O)[C@H](COC(C)(C)C)NC(=O)[C@H](CC(C)C)N(C)C(=O)CN(C)C(=O)[C@H](Cc2ccc(O)cc2)NC(=O)[C@H](CC(C)C)N(C)C1=O [pd127] ([dV][NMeF]L[NMeL]Y[Sar][NMeL]S(tBu)[NMeL][NMeA]D-Piperidide; lactam N-11) | 0.13 |
| CC(C)C[C@@H]1NC(=O)[C@H](Cc2ccccc2)N(C)C(=O)[C@@H](C(C)C)NC(=O)C[C@@H](C(=O)N2CCCCC2)NC(=O)[C@H](CC(C)C)N(C)C(=O)[C@H](CC(C)C)N(C)C(=O)[C@H](Cc2ccc(O)c(F)c2)NC(=O)[C@H](CC(C)C)N(C)C(=O)CN(C)C(=O)[C@H]([C@@H](C)O)NC(=O)[C@H](CC(C)C)N(C)C1=O [pd128] ([dV][NMeF]L[NMeL]T[Sar][NMeL][Tyr(3-F)][NMeL][NMeL]D-Piperidide; lactam N-11) | 0.17 |
| CC[C@H](C)[C@@H]1NC(=O)[C@H](CC(C)C)N(C)C(=O)CCCN(C)C(=O)C[C@@H](C(=O)N2CCCCC2)NC(=O)[C@H](CC(C)C)N(C)C(=O)[C@H](C)N(C)C(=O)[C@H](Cc2ccc(O)cc2)NC(=O)[C@H](CC(C)C)N(C)C(=O)[C@H](COC(C)(C)C)NC(=O)[C@H](CC(C)C)N(C)C(=O)[C@H](Cc2ccccc2)N(C)C1=O [pd129] ([NMeGABA][NMeL]I[NMeF][NMeL]S(tBu)[NMeL]Y[NMeA][NMeL]D-Piperidide; lactam N-11) | 0.16 |
| CC[C@H](C)[C@@H]1NC(=O)[C@H](C(C)C)N(C)C(=O)[C@H](C)N(C)C(=O)[C@H]([C@@H](C)O)NC(=O)[C@H](CC(C)C)N(C)C(=O)[C@H](Cc2ccc(C(F)(F)F)cc2)NC(=O)[C@H](CC(C)C)N(C)C(=O)[C@@H](C)N(C)C(=O)C[C@@H](C(=O)N2CCCCC2)NC(=O)[C@H](CC(C)C)NC(=O)[C@@H]2CCCN2C1=O [pd133] ([dNMeA][NMeL][Phe(4-CF3)][NMeL]T[NMeA][NMeV]IPLD-Piperidide; lactam N-11) | 2.3 |
| CC(C)C[C@H]1C(=O)N[C@@H](COC(C)(C)C)C(=O)N(C)[C@@H](Cc2ccccc2)C(=O)N(C)[C@@H](C)C(=O)N[C@H](C(=O)N2CCCCC2)CC(=O)N[C@H](C(C)C)C(=O)N(C)[C@@H](C(C)C)C(=O)N[C@@H](Cc2ccc(C(F)(F)F)cc2)C(=O)N(C)[C@@H](CC(C)C)C(=O)N[C@@H]([C@@H](C)O)C(=O)N(C)CC(=O)N1C [pd134] ([dV][NMeV][Phe(4-CF3)][NMeL]T[Sar][NMeL]S(tBu)[NMeF][NMeA]D-Piperidide; lactam N-11) | 2.6 |
| CC(C)C[C@H]1C(=O)N(C)[C@@H](C)C(=O)N(C)[C@@H](Cc2ccccc2)C(=O)N[C@@H]([C@@H](C)O)C(=O)N(C)[C@@H](CC(C)C)C(=O)N[C@@H](Cc2ccc(C(F)(F)F)cc2)C(=O)N2CCC[C@H]2C(=O)N[C@H](C(=O)N2CCCCC2)CC(=O)N1C [pd135] ([NMeL][NMeA][NMeF]T[NMeL][Phe(4-CF3)]PD-Piperidide; lactam N-8) | 1.3 |
| CC(C)C[C@H]1C(=O)N[C@@H]([C@@H](C)O)C(=O)N2CCC[C@H]2C(=O)N(C)[C@@H](C)C(=O)N[C@@H](Cc2ccc(C(F)(F)F)cc2)C(=O)N(C)[C@@H](CC(C)C)C(=O)N(C)[C@@H](CC(C)C)C(=O)N[C@H](C(=O)N2CCCCC2)CC(=O)N1C [pd136] ([NMeL]TP[NMeA][Phe(4-CF3)][NMeL][NMeL]D-Piperidide; lactam N-8) | 1.6 |
